Experimental data published in patent US20240287134A1, “PEPTIDES FOR USE AS SENOTHERAPEUTIC AGENTS” (FUNDACIÓN PROFESOR NOVOA SANTOS, priority 2019, published 2024).
Where a SMILES comes first, the peptide text is derived from it. Where no end group is shown, it is not given here. The star is where a group is joined. X1 = CN(C)c1ccc2c(c1)Oc1cc(N(C)C)ccc1C21OC(=O)c2ccc(C(=O)*)cc21; TMR = fluorophore attached at the N-terminus

Assays:
Type in all cases: cell-based, human
Cx43 in OA chondrocytes [1] = test: Western-blot of Cx43 levels; details: 16 hours, vs untreated (UT)
From the text: (§1) FIG. 4. Decrease in Cx43 levels in chondrocytes from patients with OA treated with peptides YSA1, YTP1 and TUB1. […] The decrease in the levels and activity of Cx43 activates the re-differentiation of the chondrocyte and decreases the accumulation of senescent cells, restoring the adult chondrocyte phenotype and tissue regeneration capacity. […] The results obtained were confirmed by western-blot using α-tubulin as loading control. […] (d) Chondrocytes isolated from donors with osteoarthritis were treated for 16 hours with the YTP1 peptide (150 μM) and the Cx43 levels were analysed by western blot, using α-tubulin as loading control. […] (e) Chondrocytes isolated from donors with OA were treated for 16 hours with the 8Arg-YSA1 peptide (5 μM) and the Cx43 levels were analysed by western blot, using α-tubulin as loading control. […] (g) Chondrocytes isolated from donors with OA were treated for 16 hours with the TUB1 peptide (5 μM) and the Cx43 levels were analysed by western blot, using the intensity of the Ponceau stain as loading control.
The cell pellet isolated from patients with OA and treated with the peptides or untreated were mechanically and chemically lysed using a needle of 29 gauges (BD Medical) in the presence of a cold lysis buffer (50 mM Tris HCl pH 7.5; 50 mM EDTA pH 8, 0.5% NP-40, 1% Triton X-100, 150 mM NaCl). Once the cell extracts were obtained, they were diluted in loading buffer (10% SDS, 200 mM Tris HCl pH 6.8, 50% glycerol, 0.1% Bromophenol Blue, 10% […]). Equal amounts of the cell extracts were separated on a 10% Acrylamide/Bisacrylamide (Acr/Bis) gel with SDS. The proteins were subsequently transferred to a polyvinylidene fluoride membrane (PVDF, Merck) in a Trans-Blot® SD Semi-Dry Transfer Cell (Bio-Rad). It was verified that the transfer was correct by staining the membrane with ATX Ponceau S (Sigma-Aldrich). To block possible nonspecific binding with the membrane, 1-hour incubation was performed at room temperature with a 5% milk solution in a TTBS buffer (20 mM Tris, 150 mM NaCl, 0.05% Tween-20). […]

Cx43 in OA chondrocytes [2] = test: Immunofluorescence for the detection of Cx43; details: 200 μM, against untreated (UT) cells
From the text: as §1
Primary cultures of chondrocytes at a confluence of 70-80% were treated with mimetic peptides of Cx43, and fixed with 2-4% paraformaldehyde (PFA, Sigma-Aldrich) in phosphate buffered saline (PBS, MP Biomedicals) for 10 minutes at room temperature. […]

[3] = system: gap junctions (GJs) formed by Cx43 in OA chondrocytes; test: Scrape Loading/Dye Transfer (SL/DT) assay; details: 150 μM, 16 hours, vs untreated (UT)
Experimental: FIG. 5. Peptides YSA1 and YTP1 decrease intercellular communication through gap junctions (GJs) formed by Cx43 in OA chondrocytes. (a) Scrape Loading/Dye Transfer (SL/DT) assay in which the transfer of Lucifer Yellow (LY) fluorophore between contact chondrocytes through GJs is studied.
Cells were seeded in culture plates to an approximate 90% confluence. After treating the cells with the peptides, the medium was removed and washed twice with PBS. The fluorescent compound Lucifer Yellow (LY, Cell Projects Ltd © Kent) 0.4% in PBS was added and two cuts were made, one with a scalpel and the other with a needle on the cell monolayer. The cells were incubated for 5-7 minutes at 37° C. to allow the transfer of the LY between undamaged cells in contact, after which the LY was removed, and cells were washed with PBS. The cells were fixed with 4% formaldehyde for 10 minutes. The visualization was performed in an inverted fluorescence microscope (Inverted Research Microscope Eclipse Ti, Nikon).
A Scrape Loading/Dye Transfer (SL/DT) test was performed in which the transfer of Lucifer Yellow fluorophore (LY) between contact chondrocytes through GJs was studied.

[4] = system: primary chondrocytes from articular cartilage of patients with OA; test: MTT cell viability assay to study toxicity; details: 1-10-60-600 μM, 16 hours, with respect to untreated cells
Experimental: FIG. 2. Cell viability assay to study toxicity. A MTT viability assay was carried out in primary chondrocytes from articular cartilage of patients with OA treated with increasing concentrations of the peptide 8Arg-YSA1 (1-10-60-600 μM, with the octaarginine sequence and the TMR), for 16 hours.
An initial number of cells (5,000-10,000) were seeded in a 96-well culture plate and treated with different concentrations of the peptides. After the treatment, the medium was removed from each well and 10 μL of the MTT reagent was added to 100 μL of fresh medium and incubated at 37° C. for 4 hours. To solubilize the formazan crystals of the MTT reagent, it was incubated with DMSO at room temperature and under stirring for 30 minutes. Absorbance was measured at 570 nm in a plate reader (Nanoquant Infinite M200, TECAN).
Such as it is explained in FIG. 2, a MTT viability assay was carried out on primary chondrocytes from articular cartilage of patients with OA treated with increasing concentrations of the peptide 8Arg-YSA1 (1-10-60-600 μM, with the arginine sequence and the TMR), for 16 hours.

[5] = 150 μM, α-tubulin loading control

Molecule | Cx43 levels (western blot) (Cx43 in OA chondrocytes [1]; 5 μM, Ponceau stain loading control) | positivity for Cx43 (immunofluorescence) (Cx43 in OA chondrocytes [2]) | Cx43 levels (western blot) (Cx43 in OA chondrocytes [1]; [5]) | cell coupling through GJs (Lucifer Yellow transfer) [3] | cell viability (MTT) [4]
Nt-FKGVKDRVKGK-Ct ({TMR}-FKGVKDRVKGK) [TUB1, TMR-labelled] | reduced the Cx43 levels | – | – | – | –
Nt-GKSDPYHATSGALSPAKD-Ct ({TMR}-GKSDPYHATSGALSPAKD) [YSA1, residues 242-259 of the C-terminal domain of Cx43; labelled at N-terminus with TMR fluorophore] | – | decrease in positivity | significantly reduced the levels of Cx43 | decrease in cell coupling | –
Nt-GKSDPYHATTGPLSPAKD-Ct ({TMR}-GKSDPYHATTGPLSPAKD) [YTP1, TMR-labelled] | – | decrease in positivity | reduced the levels of Cx43 | decreased cell coupling | –
CC(C)C[C@H](NC(=O)[C@H](C)NC(=O)CNC(=O)[C@H](CO)NC(=O)[C@@H](NC(=O)[C@H](C)NC(=O)[C@H](Cc1c[nH]cn1)NC(=O)[C@H](Cc1ccc(O)cc1)NC(=O)[C@@H]1CCCN1C(=O)[C@H](CC(=O)O)NC(=O)[C@H](CO)NC(=O)[C@H](CCCCN)NC(=O)CNC(=O)[C@H](CCCNC(=N)N)NC(=O)[C@H](CCCNC(=N)N)NC(=O)[C@H](CCCNC(=N)N)NC(=O)[C@H](CCCNC(=N)N)NC(=O)[C@H](CCCNC(=N)N)NC(=O)[C@H](CCCNC(=N)N)NC(=O)[C@H](CCCNC(=N)N)NC(=O)[C@H](CCCNC(=N)N)NC(=O)c1ccc2c(c1)C1(OC2=O)c2ccc(N(C)C)cc2Oc2cc(N(C)C)ccc21)[C@@H](C)O)C(=O)N[C@@H](CO)C(=O)N1CCC[C@H]1C(=O)N[C@@H](C)C(=O)N[C@@H](CCCCN)C(=O)N[C@@H](CC(=O)O)C(=O)O [8Arg-YSA1] (X1-RRRRRRRRGKSDPYHATSGALSPAKD-OH) | – | – | – | – | did not affect cell viability
